What is called pEC50 is the negative decadic logarithm of the EC50, by convention in mol/L.

We go through one molecule from article PMC10531071, “Furmonertinib, a Third-Generation EGFR Tyrosine Kinase Inhibitor, Overcomes Multidrug Resistance through Inhibiting ABCB1 and ABCG2 in Cancer Cells” (International Journal of Molecular Sciences, 2023).

pEC50: −log10 of the molar value.

One assay concerns the target T1, ABCG2 (BCRP; MXR; ABCP) (Homo sapiens, UniProt Q9UNQ0).
T1 sequence (Q9UNQ0 1-655): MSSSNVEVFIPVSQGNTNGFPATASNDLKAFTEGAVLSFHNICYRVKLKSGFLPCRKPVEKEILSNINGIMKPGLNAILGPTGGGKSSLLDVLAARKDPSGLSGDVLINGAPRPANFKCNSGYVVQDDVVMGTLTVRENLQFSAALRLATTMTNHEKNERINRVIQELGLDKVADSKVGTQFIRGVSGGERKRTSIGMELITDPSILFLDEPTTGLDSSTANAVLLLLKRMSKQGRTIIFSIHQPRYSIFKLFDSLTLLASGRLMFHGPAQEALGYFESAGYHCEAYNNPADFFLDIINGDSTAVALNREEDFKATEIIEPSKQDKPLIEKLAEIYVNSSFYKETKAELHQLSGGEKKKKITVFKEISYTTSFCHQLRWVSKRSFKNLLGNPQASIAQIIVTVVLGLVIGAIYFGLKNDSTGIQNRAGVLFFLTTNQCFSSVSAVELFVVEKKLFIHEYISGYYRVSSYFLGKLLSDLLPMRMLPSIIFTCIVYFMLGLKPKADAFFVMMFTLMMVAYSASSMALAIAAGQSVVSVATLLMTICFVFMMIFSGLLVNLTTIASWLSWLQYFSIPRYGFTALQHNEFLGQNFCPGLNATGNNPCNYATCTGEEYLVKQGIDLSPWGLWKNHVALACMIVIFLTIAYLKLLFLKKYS
The assay is described as follows: vanadate-sensitive ATPase stimulation in High-Five insect cell membrane vesicles; also PhA efflux inhibition in R482-HEK293 cells (IC50 […]). The class given is biochemical.

Assay [1] deals with ABCB1 (P-glycoprotein; MDR1) (Homo sapiens, UniProt P08183). Description: vanadate-sensitive ATPase stimulation in High-Five insect cell membrane vesicles; also calcein-AM efflux inhibition in MDR19-HEK293 cells (IC50 […]). In kind it is biochemical.
ABCB1 (P-glycoprotein; MDR1), sequence (P08183 whole entry): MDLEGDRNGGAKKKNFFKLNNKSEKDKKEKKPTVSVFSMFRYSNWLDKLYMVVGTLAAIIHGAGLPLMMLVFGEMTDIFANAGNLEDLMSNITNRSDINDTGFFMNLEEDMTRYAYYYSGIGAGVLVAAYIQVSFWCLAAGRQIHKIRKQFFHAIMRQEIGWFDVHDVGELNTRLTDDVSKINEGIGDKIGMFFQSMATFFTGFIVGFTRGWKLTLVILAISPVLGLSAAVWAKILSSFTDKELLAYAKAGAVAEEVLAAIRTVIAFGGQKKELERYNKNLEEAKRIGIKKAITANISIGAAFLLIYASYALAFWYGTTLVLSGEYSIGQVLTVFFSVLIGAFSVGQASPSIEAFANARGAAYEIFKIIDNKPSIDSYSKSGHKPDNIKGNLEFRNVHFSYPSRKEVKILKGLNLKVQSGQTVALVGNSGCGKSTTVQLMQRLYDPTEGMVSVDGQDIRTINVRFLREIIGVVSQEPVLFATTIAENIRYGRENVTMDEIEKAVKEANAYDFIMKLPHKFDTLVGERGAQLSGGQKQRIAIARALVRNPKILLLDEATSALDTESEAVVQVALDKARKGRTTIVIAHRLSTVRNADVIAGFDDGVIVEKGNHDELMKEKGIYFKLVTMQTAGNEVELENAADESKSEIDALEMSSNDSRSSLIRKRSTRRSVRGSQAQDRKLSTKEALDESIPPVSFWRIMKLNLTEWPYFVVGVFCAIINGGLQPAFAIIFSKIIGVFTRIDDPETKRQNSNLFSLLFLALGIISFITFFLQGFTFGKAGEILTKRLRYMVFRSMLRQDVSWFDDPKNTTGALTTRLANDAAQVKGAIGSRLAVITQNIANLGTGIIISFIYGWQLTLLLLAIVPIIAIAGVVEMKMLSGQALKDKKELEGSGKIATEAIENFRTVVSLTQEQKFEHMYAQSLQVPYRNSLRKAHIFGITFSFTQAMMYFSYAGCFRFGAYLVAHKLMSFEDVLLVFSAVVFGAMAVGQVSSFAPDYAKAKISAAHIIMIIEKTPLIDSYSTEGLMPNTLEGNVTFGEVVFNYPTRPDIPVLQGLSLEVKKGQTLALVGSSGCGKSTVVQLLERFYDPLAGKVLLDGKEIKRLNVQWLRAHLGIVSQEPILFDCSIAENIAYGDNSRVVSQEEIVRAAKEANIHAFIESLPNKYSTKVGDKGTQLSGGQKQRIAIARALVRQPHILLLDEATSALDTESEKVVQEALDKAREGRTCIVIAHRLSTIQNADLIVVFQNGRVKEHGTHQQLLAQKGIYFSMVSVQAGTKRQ

As to `C=CC(=O)Nc1cc(Nc2nccc(-c3cn(C)c4ccccc34)n2)c(OCC(F)(F)F)nc1N(C)CCN(C)C` [furmonertinib], the pEC50 at ABCG2 (BCRP; MXR; ABCP) was roughly 8.52; in assay [1], roughly 6.22.
